Six molecules from patent publication US11541028B2, “Peptide pharmaceuticals for treatment of NASH and other disorders” (Mederis Diabetes LLC, priority 2018, dated 2023) can be followed below.

Bridge positions count the residues as written; N and C are the ends. Square brackets hold non-standard residues; d marks the D form. Peptide text beside a SMILES is read from it. * marks the point of attachment. Melibiouronoyl(1β-O-dodecyl) = CCCCCCCCCCCCO[C@@H]1O[C@H](CO[C@H]2O[C@H](C(=O)*)[C@H](O)[C@H](O)[C@H]2O)[C@@H](O)[C@H](O)[C@H]1O; X1 = CCCCCCCCCCCCCCCCO[C@@H]1O[C@H](CO[C@H]2O[C@H](C(=O)*)[C@H](O)[C@H](O)[C@H]2O)[C@@H](O)[C@H](O)[C@H]1O; Aib = CC(C)(N)C(=O)O

A word on the EC50: it is the concentration that produces a half-maximal response.

One experiment addresses T1, human GLP-1 receptor (Homo sapiens, UniProt P43220).
T1 construct: host or cells: CHO cells
The experiment can be described thus: DiscoveRx LeadHunter cellular assay, cAMP stimulation, GLP-1 receptor in CHO cells. The format is cell-based. The note with it: human GLP-1 receptor in CHO cells (DiscoveRx); read-out: EC50 cAMP GLP-1 R.

In the next experiment the target is T2, human glucagon receptor (Homo sapiens, UniProt P47871).
T2 construct: host or cells: CHO cells
T2 sequence (P47871 26-477): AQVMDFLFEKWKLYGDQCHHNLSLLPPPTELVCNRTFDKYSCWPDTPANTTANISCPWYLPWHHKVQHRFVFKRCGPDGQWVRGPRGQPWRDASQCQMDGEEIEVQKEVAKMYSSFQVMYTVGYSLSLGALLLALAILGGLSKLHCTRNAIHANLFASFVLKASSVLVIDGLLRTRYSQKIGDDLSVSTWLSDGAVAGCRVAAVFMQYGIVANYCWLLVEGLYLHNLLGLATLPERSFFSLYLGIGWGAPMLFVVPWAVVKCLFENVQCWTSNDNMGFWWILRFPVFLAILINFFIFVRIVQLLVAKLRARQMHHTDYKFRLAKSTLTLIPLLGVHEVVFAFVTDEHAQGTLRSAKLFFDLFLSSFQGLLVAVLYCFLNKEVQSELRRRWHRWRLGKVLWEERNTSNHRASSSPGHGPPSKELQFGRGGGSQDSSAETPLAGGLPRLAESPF
Nature of the experiment: DiscoveRx LeadHunter cellular assay, cAMP stimulation, glucagon receptor in CHO cells. Type of experiment: cell-based.

T1 sequence (P43220 24-463): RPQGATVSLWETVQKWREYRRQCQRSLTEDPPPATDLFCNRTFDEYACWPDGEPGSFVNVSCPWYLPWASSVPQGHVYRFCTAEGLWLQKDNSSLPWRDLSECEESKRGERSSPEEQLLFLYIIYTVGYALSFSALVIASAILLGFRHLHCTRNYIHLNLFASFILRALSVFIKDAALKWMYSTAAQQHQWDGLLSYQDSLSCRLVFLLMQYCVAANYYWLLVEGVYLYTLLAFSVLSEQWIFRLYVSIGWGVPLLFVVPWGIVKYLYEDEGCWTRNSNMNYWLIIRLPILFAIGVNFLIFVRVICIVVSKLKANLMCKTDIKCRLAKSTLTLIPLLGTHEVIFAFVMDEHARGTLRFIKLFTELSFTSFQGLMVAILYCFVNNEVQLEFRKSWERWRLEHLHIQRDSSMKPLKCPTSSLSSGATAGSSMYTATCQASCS
Protocol for human GLP-1 receptor: (§1) A further series of cellular assays was carried out with standard cellular assays (DiscoveRx, LeadHunter assays) using readout of cAMP stimulation or arrestin activation. Compounds were weighed precisely in an amount of about 1 mg and shipped to DiscoveRx for dilution and assay.
Protocol for human glucagon receptor: as §1

For `CCCCCCCCCCCCCCCCO[C@@H]1O[C@H](CO[C@H]2O[C@H](C(=O)NCCCC[C@H](NC(=O)[C@H](CC(=O)O)NC(=O)[C@H](CO)NC(=O)[C@@H](NC(=O)[C@H](Cc3ccccc3)NC(=O)[C@@H](NC(=O)CNC(=O)[C@H](CCC(N)=O)NC(=O)C(C)(C)NC(=O)[C@@H](N)Cc3c[nH]cn3)[C@@H](C)O)[C@@H](C)O)C(=O)N[C@@H](CO)C(=O)N[C@@H](CCCCN)C(=O)N[C@@H](Cc3ccc(O)cc3)C(=O)N[C@@H](CC(C)C)C(=O)N[C@@H](CC(=O)O)C(=O)N[C@H]3CCC(=O)NCCCC[C@@H](C(=O)N[C@@H](CCC(=O)O)C(=O)N[C@@H](Cc4ccccc4)C(=O)N[C@H](C(=O)N[C@@H](CCC(N)=O)C(=O)N[C@@H](Cc4c[nH]c5ccccc45)C(=O)N[C@@H](CC(C)C)C(=O)N[C@@H](CC(C)C)C(=O)N[C@@H](CCC(N)=O)C(=O)N[C@H](C(N)=O)[C@@H](C)O)[C@@H](C)CC)NC(=O)[C@H](C)NC(=O)[C@H](C)NC(=O)[C@H](CCC(N)=O)NC3=O)[C@H](O)[C@H](O)[C@H]2O)[C@@H](O)[C@H](O)[C@H]1O` [EU-A1596] (H-H[Aib]QGTFTSDK(X1)SKYLDEQAAKEFIQWLLQT-NH2; lactam 16-20; N-terminus assumed), the EC50 on human GLP-1 receptor worked out at 0.493 nM; on human glucagon receptor, 1.23 nM.

Consider `CCCCCCCCCCCCO[C@@H]1O[C@H](CO[C@H]2O[C@H](C(=O)NCCCC[C@H](NC(=O)[C@H](CC(=O)O)NC(=O)[C@H](CO)NC(=O)[C@@H](NC(=O)[C@H](Cc3ccccc3)NC(=O)[C@@H](NC(=O)CNC(=O)[C@H](CCC(N)=O)NC(=O)C(C)(C)NC(=O)[C@@H](N)Cc3c[nH]cn3)[C@@H](C)O)[C@@H](C)O)C(=O)N[C@@H](CO)C(=O)N[C@@H](CCCCN)C(=O)N[C@@H](Cc3ccc(O)cc3)C(=O)N[C@@H](CC(C)C)C(=O)N[C@@H](CC(=O)O)C(=O)N[C@H]3CCC(=O)NCCCC[C@@H](C(=O)N[C@@H](CCC(=O)O)C(=O)N[C@@H](Cc4ccccc4)C(=O)N[C@H](C(=O)N[C@@H](CCC(=O)O)C(=O)N[C@@H](Cc4c[nH]c5ccccc45)C(=O)N[C@@H](CC(C)C)C(=O)N[C@@H](CC(C)C)C(=O)N[C@@H](CCC(N)=O)C(=O)N[C@H](C(N)=O)[C@@H](C)O)[C@@H](C)CC)NC(=O)[C@H](C)NC(=O)[C@H](C)NC(=O)[C@H](CCC(N)=O)NC3=O)[C@H](O)[C@H](O)[C@H]2O)[C@@H](O)[C@H](O)[C@H]1O` [EU-A1598] (H-H[Aib]QGTFTSDK(Melibiouronoyl(1β-O-dodecyl))SKYLDEQAAKEFIEWLLQT-NH2; lactam 16-20; N-terminus assumed), for which the 50% effective concentration (EC50) at human GLP-1 receptor was determined as 0.026 nM; on human glucagon receptor, 0.199 nM.

Regarding `CCCCCCCCCCCCO[C@@H]1O[C@H](CO[C@H]2O[C@H](C(=O)NCCCC[C@H](NC(=O)[C@H](CC(=O)O)NC(=O)[C@H](CO)NC(=O)[C@@H](NC(=O)[C@H](Cc3ccccc3)NC(=O)[C@@H](NC(=O)CNC(=O)[C@H](CCC(N)=O)NC(=O)C(C)(C)NC(=O)[C@@H](N)Cc3c[nH]cn3)[C@@H](C)O)[C@@H](C)O)C(=O)N[C@@H](CO)C(=O)N[C@@H](CCCCN)C(=O)N[C@@H](Cc3ccc(O)cc3)C(=O)N[C@@H](CC(C)C)C(=O)N[C@@H](CC(=O)O)C(=O)N[C@H]3CCC(=O)NCCCC[C@@H](C(=O)N[C@@H](CCC(=O)O)C(=O)N[C@@H](Cc4ccccc4)C(=O)N[C@H](C(=O)N[C@@H](CCC(=O)O)C(=O)N[C@@H](Cc4c[nH]c5ccccc45)C(=O)N[C@@H](CC(C)C)C(=O)N[C@@H](CC(C)C)C(=O)N[C@@H](CCC(N)=O)C(=O)N[C@H](C(=O)O)[C@@H](C)O)[C@@H](C)CC)NC(=O)[C@H](C)NC(=O)[C@H](C)NC(=O)[C@H](CCC(N)=O)NC3=O)[C@H](O)[C@H](O)[C@H]2O)[C@@H](O)[C@H](O)[C@H]1O` [EU-A1599] (H-H[Aib]QGTFTSDK(Melibiouronoyl(1β-O-dodecyl))SKYLDEQAAKEFIEWLLQT-OH; lactam 16-20; N-terminus assumed), the concentration for a half-maximal effect (EC50) on human GLP-1 receptor came out at 0.061 nM; at human glucagon receptor it was 0.317 nM.

As for `CCCCCCCCCCCCO[C@@H]1O[C@H](CO[C@H]2O[C@H](C(=O)NCCCC[C@H](N)C(=O)NCCCC[C@H](NC(=O)[C@@H](NC(=O)[C@H](Cc3ccccc3)NC(=O)[C@H](CCC(=O)O)NC(=O)[C@@H]3CCCCNC(=O)CC[C@H](NC(=O)[C@H](CC(=O)O)NC(=O)[C@H](CC(C)C)NC(=O)[C@H](Cc4ccc(O)cc4)NC(=O)[C@H](CCCCN)NC(=O)[C@H](CO)NC(=O)[C@H](Cc4ccc(O)cc4)NC(=O)[C@H](CC(=O)O)NC(=O)[C@H](CO)NC(=O)[C@@H](NC(=O)[C@H](Cc4ccccc4)NC(=O)[C@@H](NC(=O)CNC(=O)[C@H](CCC(N)=O)NC(=O)C(C)(C)NC(=O)[C@@H](N)Cc4c[nH]cn4)[C@@H](C)O)[C@@H](C)O)C(=O)N[C@@H](CCC(N)=O)C(=O)N[C@@H](C)C(=O)N[C@@H](C)C(=O)N3)[C@@H](C)CC)C(=O)N[C@@H](Cc3c[nH]c4ccccc34)C(=O)N[C@@H](CC(C)C)C(=O)N[C@@H](CC(C)C)C(=O)N[C@@H](CCC(N)=O)C(=O)N[C@H](C(N)=O)[C@@H](C)O)[C@H](O)[C@H](O)[C@H]2O)[C@@H](O)[C@H](O)[C@H]1O` [EU-A1601], the concentration giving a half-maximal response (EC50) on human GLP-1 receptor turned out to be 0.007 nM; at human glucagon receptor it was 0.048 nM.

As for `CCCCCCCCCCCCCCO[C@@H]1O[C@H](CO[C@H]2O[C@H](C(=O)NCCCC[C@H](N)C(=O)NCCCC[C@H](NC(=O)[C@@H](NC(=O)[C@H](Cc3ccccc3)NC(=O)[C@H](CCC(=O)O)NC(=O)[C@@H]3CCCCNC(=O)CC[C@H](NC(=O)[C@H](CC(=O)O)NC(=O)[C@H](CC(C)C)NC(=O)[C@H](Cc4ccc(O)cc4)NC(=O)[C@H](CCCCN)NC(=O)[C@H](CO)NC(=O)[C@H](Cc4ccc(O)cc4)NC(=O)[C@H](CC(=O)O)NC(=O)[C@H](CO)NC(=O)[C@@H](NC(=O)[C@H](Cc4ccccc4)NC(=O)[C@@H](NC(=O)CNC(=O)[C@H](CCC(N)=O)NC(=O)C(C)(C)NC(=O)[C@@H](N)Cc4c[nH]cn4)[C@@H](C)O)[C@@H](C)O)C(=O)N[C@@H](CCC(N)=O)C(=O)N[C@@H](C)C(=O)N[C@@H](C)C(=O)N3)[C@@H](C)CC)C(=O)N[C@@H](Cc3c[nH]c4ccccc34)C(=O)N[C@@H](CC(C)C)C(=O)N[C@@H](CC(C)C)C(=O)N[C@@H](CCC(N)=O)C(=O)N[C@H](C(N)=O)[C@@H](C)O)[C@H](O)[C@H](O)[C@H]2O)[C@@H](O)[C@H](O)[C@H]1O` [EU-A1602], the EC50 is 0.035 nM on human GLP-1 receptor and 0.162 nM on human glucagon receptor.

For the molecule `CCCCCCCCCCCCO[C@@H]1O[C@H](CO[C@H]2O[C@H](C(=O)N[C@@H](CCC(=O)NCCCC[C@H](NC(=O)[C@@H](NC(=O)[C@H](Cc3ccccc3)NC(=O)[C@H](CCC(=O)O)NC(=O)[C@@H]3CCCCNC(=O)CC[C@H](NC(=O)[C@H](CC(=O)O)NC(=O)[C@H](CC(C)C)NC(=O)[C@H](Cc4ccc(O)cc4)NC(=O)[C@H](CCCCN)NC(=O)[C@H](CO)NC(=O)[C@H](Cc4ccc(O)cc4)NC(=O)[C@H](CC(=O)O)NC(=O)[C@H](CO)NC(=O)[C@@H](NC(=O)[C@H](Cc4ccccc4)NC(=O)[C@@H](NC(=O)CNC(=O)[C@H](CCC(N)=O)NC(=O)C(C)(C)NC(=O)[C@@H](N)Cc4c[nH]cn4)[C@@H](C)O)[C@@H](C)O)C(=O)N[C@@H](CCC(N)=O)C(=O)N[C@@H](C)C(=O)N[C@@H](C)C(=O)N3)[C@@H](C)CC)C(=O)N[C@@H](Cc3c[nH]c4ccccc34)C(=O)N[C@@H](CC(C)C)C(=O)N[C@@H](CC(C)C)C(=O)N[C@@H](CCC(N)=O)C(=O)N[C@H](C(N)=O)[C@@H](C)O)C(=O)O)[C@H](O)[C@H](O)[C@H]2O)[C@@H](O)[C@H](O)[C@H]1O` [EU-A1606], the EC50 on human GLP-1 receptor was 0.017 nM; on human glucagon receptor, 0.058 nM.
